Results taken from patent publication US4124598A, “Psoralens” (Hoffmann-La Roche Inc., priority 1976, dated 1978).
Where a name gives a salt, the structure may show the parent alone. Read-outs that look alike come from different tables or passages of the source.

What was measured:
Calf thymus DNA [1] = assay: Equilibrium dialysis, non-covalent binding to DNA; settings: for Kd: 0.01 M Tris, non-covalent binding; for (PS)/(S) for DNA in Saturated Solution: occupied/unoccupied binding sites
Method: (§1) In order to establish the dissociation constants from DNA and RNA, the non-covalent binding was ascertained. Non-covalent binding determines the presence of the psoralen within the nucleic acid helix. Its presence is determined in the absence of any radiant energy. As noted before, radiant energy is necessary to activate the psoralen covalent binding reaction with nucleic acid base pairs.
(§2) To determine the non-covalent binding, Calf thymus DNA (Sigma Type I) was dissolved in a 0.01 M Tris 0.001 M EDTA pH 8.5 buffer at a concentration of 25 ug/ml. A quantity of this DNA solution was placed in a dialysis bag (pretreated by boiling in NaHCO3), and the various tritiated derivatives were added inside the bag in half the cases and outside the bag in the other half. The molar ratio of psoralen molecules to base pairs was approximately 1:25. The bags were placed in vials filled with 18 ml of buffer and put on a shaker for 48-60 hours. After this period, radioactivity was determined both inside and outside the bags and the optical density of the DNA solution measured. From this information, and the specific activity of each derivative, the amount of drug non-covalently bound to the DNA was determined. Binding of the derivatives to Drosophila melanogaster ribosomal RNA was measured in exactly the same manner.
(§3) The units of the dissociation constants are moles/liter. Solubilities and molar extinction coefficients (ε) were obtained in pure water, the equilibrium constants (KD) in 0.01 M Tris.

DNA (calf thymus) [2] = assay: High intensity photoaddition (covalent binding) to DNA; settings: 25 μg/ml DNA, psoralen:base pair 1:3
Method: (§4) The covalent binding of the psoralens to DNA and RNA was studied. To achieve covalent binding, it is necessary to supply radiant energy (light) to the binding sites. These studies were carried out as follows:
(§5) The DNA and RNA used in the covalent binding studies have been described previously. Samples of each nucleic acid were prepared at a concentration of 25 ug/ml in 0.01 m Tris 0.001 M EDTA buffer. The radioactive-psoralen derivatives were added in a ratio of one psoralen for every three base pairs. The irradiation was carried out in one of the two following devices.
(§6) The low intensity irradiations were performed with a modified slide projector which was fitted with a 400 watt General Electric mercury vapor lamp (H 400 A 33-1/T16). The image of the arc was focused on the same cell, jacketed by a cobaltous nitrate solution which was also used for the high intensity irradiations. The light intensity delivered to the sample in this device was 4 to 6 mw/cm^2. The high intensity irradiations were carried out in a device containing two of the sam 400 watt General Electric mercury vapor lamps which were mounted on either side of a double walled sample chamber at a distance between centers of 4.0 cm. The chamber was cooled to 10° C. by continuous circulation of a temperature regulated solution of cobaltous nitrate (40% w/w). The cobalt solution served as an ultraviolet filter which allowed a maximum transmittance of 365 nm light and a window from approximately 340-380 nm. The intensity of the light at the surface of the inner sample chamber was approximately 100 mw/cm^2. The nucleic acid-psoralen mixture was placed in the inner chamber where it was continuously stirred throughout the irradiation. Aliquots of each solution (derivative plus nucleic acid) were taken at 20, 40 and 60 minutes. Each aliquot was then extracted twice with chloroform/iso-amyl alcohol (24:1) to remove unreacted psoralen followed by exhaustive dialysis against 0.01 M Tris, 0.001 M EDTA buffer. The successful extraction of unbound psoralen by the chloroform-isoamyl alcohol required the aqueous phase to be at least 0.15 M in NaCl. Finally, the optical density of the nucleic-acid psoralen mixture was taken and its radioactivity determined, thus giving the amount of derivative covalently bound to the DNA or RNA. Taking samples, at spaced time intervals also permitted an assessment of the kinetics of the covalent binding.

[3] = system: vesicular stomatitis virus; assay type: cell-based, Vesicular stomatitis virus Indiana strain; settings: for effectiveness in inactivation of vesicular stomatitis virus vs 4,5',8-trimethyl psoralen: high dose rates, e.g., 30 μg/ml
DNA (calf thymus) [4] = assay: Low intensity photoaddition (covalent binding) to DNA; settings: for A (footnote 1, shown as drawing 9) / B = percent of added psoralen covalently bound: 25 μg/ml DNA, psoralen:base pair 1:3; for moles of psoralen bound per mole of base pairs: 90 minutes irradiation
Method: as §4, §5
as §6, with “Aliquots of each solution (derivative plus nucleic acid) were taken at 20, 40 and 60 minutes.” left out

Solubility in pure water = assay type: physicochemical; settings: for solubility: pure water
Excerpt: In order to study solubilities and dissociation constants, it is most convenient to prepare tritiated derivatives of the psoralen compounds. Thus, well-known radiation counting methods may be utilized to monitor the presence of the psoralens in solutions, or in nucleic acids.
as §3

[5] = system: RNA (Drosophila melanogaster ribosomal RNA); assay: High intensity photoaddition (covalent binding) to RNA; settings: 25 μg/ml RNA, psoralen:base pair 1:3
Method: as §4, §5, §6

[6] = molecular target: Drosophila melanogaster ribosomal RNA; assay: Equilibrium dialysis, non-covalent binding to RNA; settings: for Kd: 0.01 M Tris, non-covalent binding; for (PS)/(S) for RNA in Saturated Solution: occupied/unoccupied binding sites
Method: as §1, §2, §3

[7] = Molar extinction coefficient in pure water; assay type: physicochemical
Excerpt: as §3

DNA = assay: Reactivity with DNA (general statement); assay type: binding, calf
Method: as §4, §5
as §6, with “Each aliquot was then extracted twice with chloroform/iso-amyl alcohol (24:1) to remove unreacted psoralen followed by exhaustive dialysis against 0.01 M Tris, 0.001 M EDTA buffer. The successful extraction of unbound psoralen by the chloroform-isoamyl alcohol required the aqueous phase to be at least 0.15 M in NaCl.” left out, “Taking samples, at spaced time intervals also permitted an assessment of the kinetics of the covalent binding.” left out

[8] = molecular target: Drosophila melanogaster ribosomal RNA; settings: calculated from literature results, cited from earlier work
Calf thymus DNA [9] = settings: calculated from literature results, cited from earlier work
[10] = calculated from literature results, cited from earlier work
[11] = after 90 minutes of irradiation

SMILES: Cc1oc2c(C)c3oc(=O)cc(C)c3cc2c1CN [4'-aminomethyl-4,5',8-trimethyl psoralen hydrochloride]
- Kd (Calf thymus DNA [1]): 6.6 µM
- times more effective at reaching state of site saturation (Calf thymus DNA [1]; calculated, DNA): 10^4 times
- (PS)/(S) for DNA in Saturated Solution (Calf thymus DNA [1]; saturated solution): 5000
- times more strongly binding than 4'-hydroxymethyl trioxsalen (Calf thymus DNA [1]; vs 4'-hydroxymethyl trioxsalen): about 100 times
- times more strongly binding to DNA than trioxsalen (Calf thymus DNA [1]; vs trioxsalen): about 8 times
- A (footnote 1, shown as drawing 10) (DNA (calf thymus) [2]; 20 min irradiation): 4.7
- B = percent of added psoralen covalently bound (DNA (calf thymus) [2]; 20 min irradiation): 63.8%
- A (footnote 1, shown as drawing 10) (DNA (calf thymus) [2]; 40 min irradiation): 4.8
- B = percent of added psoralen covalently bound (DNA (calf thymus) [2]; 40 min irradiation): 62.5%
- A (footnote 1, shown as drawing 10) (DNA (calf thymus) [2]; 60 min irradiation): 4.8
- B = percent of added psoralen covalently bound (DNA (calf thymus) [2]; 60 min irradiation): 62.5%
- inactivation of vesicular stomatitis virus, comparison in words ([3]; FIG. 2, 1-3 μg/ml, long wavelength UV): undisputed superiority
- effectiveness in inactivation of vesicular stomatitis virus vs 4,5',8-trimethyl psoralen [3]: nearly one thousand times more effective
- rate of reaction with DNA / initial rate of photochemical binding (DNA (calf thymus) [4]): reacts with DNA much faster than trioxsalen
- A (footnote 1, shown as drawing 9) (DNA (calf thymus) [4]; 5 min irradiation): 15.0
- B = percent of added psoralen covalently bound (DNA (calf thymus) [4]; 5 min irradiation): 19.3%
- A (footnote 1, shown as drawing 9) (DNA (calf thymus) [4]; 10 min irradiation): 10.5
- B = percent of added psoralen covalently bound (DNA (calf thymus) [4]; 10 min irradiation): 27.4%
- A (footnote 1, shown as drawing 9) (DNA (calf thymus) [4]; 30 min irradiation): 6.9
- B = percent of added psoralen covalently bound (DNA (calf thymus) [4]; 30 min irradiation): 41.8%
- A (footnote 1, shown as drawing 9) (DNA (calf thymus) [4]; 60 min irradiation): 5.9
- B = percent of added psoralen covalently bound (DNA (calf thymus) [4]; 60 min irradiation): 48.7%
- A (footnote 1, shown as drawing 9) (DNA (calf thymus) [4]; 90 min irradiation): 5.5
- B = percent of added psoralen covalently bound (DNA (calf thymus) [4]; 90 min irradiation): 52.4%
- moles of psoralen bound per mole of base pairs (DNA (calf thymus) [4]): 0.18 moles per mole of base pairs
- molecules in the solution covalently bound to DNA (DNA (calf thymus) [4]; [11]): over half
- solubility (Solubility in pure water): 10000 µg/mL
- solubility (Solubility in pure water; molar): 34000 µM
- times more soluble than 4'-hydroxymethyl trioxsalen (Solubility in pure water; vs 4'-hydroxymethyl trioxsalen): 150 times
- A (footnote 1, shown as drawing 11) ([5]; 20 min irradiation): 5.1
- B = percent of added psoralen covalently bound ([5]; 20 min irradiation): 59.4%
- A (footnote 1, shown as drawing 11) ([5]; 40 min irradiation): 5.3
- B = percent of added psoralen covalently bound ([5]; 40 min irradiation): 57.2%
- A (footnote 1, shown as drawing 11) ([5]; 60 min irradiation): 5.3
- B = percent of added psoralen covalently bound ([5]; 60 min irradiation): 57.3%
- Kd [6]: 20 µM
- (PS)/(S) for RNA in Saturated Solution [6]: 1700
- Extinction coefficient ε, 250 nm [7]: 25000 L/mol/cm
- reactivity with DNA (DNA): excellent reactivity with DNA

SMILES: Cc1oc2c(C)c3oc(=O)cc(C)c3cc2c1CO [4'-hydroxymethyl-4,5',8-trimethyl psoralen]
- Kd (Calf thymus DNA [1]): 290 µM
- DNA site saturation, one psoralen per base pairs (Calf thymus DNA [1]; saturated solution, expected from KD and solubility): one psoralen per three base pairs
- (PS)/(S) for DNA in Saturated Solution (Calf thymus DNA [1]; saturated solution): 0.55
- (PS)/(S) for DNA in Saturated Solution (Calf thymus DNA [1]; saturated solution, listed as 4'-hydroxmethyl trioxsalen): 0.5
- times more strongly binding to DNA than methoxsalen (Calf thymus DNA [1]; vs methoxsalen): 10 times
- A (footnote 1, shown as drawing 10) (DNA (calf thymus) [2]; 20 min irradiation): 9.1
- B = percent of added psoralen covalently bound (DNA (calf thymus) [2]; 20 min irradiation): 33.0%
- A (footnote 1, shown as drawing 10) (DNA (calf thymus) [2]; 40 min irradiation): 9.2
- B = percent of added psoralen covalently bound (DNA (calf thymus) [2]; 40 min irradiation): 32.6%
- A (footnote 1, shown as drawing 10) (DNA (calf thymus) [2]; 60 min irradiation): 9.1
- B = percent of added psoralen covalently bound (DNA (calf thymus) [2]; 60 min irradiation): 33.0%
- effectiveness in inactivation of vesicular stomatitis virus vs 4,5',8-trimethyl psoralen [3]: nearly one thousand times more effective
- A (footnote 1, shown as drawing 9) (DNA (calf thymus) [4]; 5 min irradiation): 89.0
- B = percent of added psoralen covalently bound (DNA (calf thymus) [4]; 5 min irradiation): 3.0%
- A (footnote 1, shown as drawing 9) (DNA (calf thymus) [4]; 10 min irradiation): 59.6
- B = percent of added psoralen covalently bound (DNA (calf thymus) [4]; 10 min irradiation): 4.6%
- A (footnote 1, shown as drawing 9) (DNA (calf thymus) [4]; 30 min irradiation): 26.0
- B = percent of added psoralen covalently bound (DNA (calf thymus) [4]; 30 min irradiation): 10.3%
- A (footnote 1, shown as drawing 9) (DNA (calf thymus) [4]; 60 min irradiation): 19.5
- B = percent of added psoralen covalently bound (DNA (calf thymus) [4]; 60 min irradiation): 13.8%
- A (footnote 1, shown as drawing 9) (DNA (calf thymus) [4]; 90 min irradiation): 17.2
- B = percent of added psoralen covalently bound (DNA (calf thymus) [4]; 90 min irradiation): 15.7%
- moles of psoralen bound per mole of base pairs (DNA (calf thymus) [4]): 0.06 moles per mole of base pairs
- remains free in the solution (DNA (calf thymus) [4]; [11]): more than 80%
- solubility (Solubility in pure water): 41 µg/mL
- solubility (Solubility in pure water; molar): 160 µM
- A (footnote 1, shown as drawing 11) ([5]; 20 min irradiation): 26.3
- B = percent of added psoralen covalently bound ([5]; 20 min irradiation): 11.5%
- A (footnote 1, shown as drawing 11) ([5]; 40 min irradiation): 24.8
- B = percent of added psoralen covalently bound ([5]; 40 min irradiation): 12.1%
- A (footnote 1, shown as drawing 11) ([5]; 60 min irradiation): 23.5
- B = percent of added psoralen covalently bound ([5]; 60 min irradiation): 13.0%
- Kd [6]: 1000 µM
- (PS)/(S) for RNA in Saturated Solution [6]: 0.16
- Extinction coefficient ε, 250 nm [7]: 25000 L/mol/cm
- reactivity with DNA (DNA): excellent reactivity with DNA

SMILES: COc1c2occc2cc2ccc(=O)oc12 [8-methoxypsoralen, 8-methoxy psoralen]
- one psoralen per n base pairs at equilibrium (best achievable) (Calf thymus DNA [1]; saturated solution): ~20 base pairs
- Kd [8]: 17000 µM
- (PS)/(S) for RNA in Saturated Solution ([8]; saturated solution): 0.010
- Kd (Calf thymus DNA [9]): 2500 µM
- (PS)/(S) for DNA in Saturated Solution (Calf thymus DNA [9]; saturated solution): 0.068
- solubility [10]: 36 µg/mL
- solubility ([10]; molar): 170 µM
- Extinction coefficient ε, 250 nm [7]: 19000 L/mol/cm
